Key:
Format in all cases: in vivo
[1] = tested on: Aedes aegypti strain MONHEIM; test: Aedes aegypti test (AEDSAE surface treatment & contact assay); conditions: 30 minutes exposure, 24 hours after contact, read-out: efficacy (mortality)
Diabrotica balteata = Diabrotica balteata spray test; conditions: 168 h, 500 g/ha (=160 μg/well), wheat seeds, after 7 days, read-out: activity (efficacy, seedlings grown)
Procedure, shortened: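 Efficacy was read 7 days after infesting each unit with 10–20 banded cucumber beetle larvae, as % of seedlings growing like untreated, uninfested controls. Before infestation, wheat seeds germinated 1 day on agar (5 per well) were sprayed with the active ingredient. The active was formulated in acetone/DMF and diluted in water containing emulsifier.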

Spodoptera frugiperda = Spodoptera frugiperda spray test; conditions: in Zea mays, 168 h, read-out: activity (mortality)
Procedure, shortened: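 Larvae of fall armyworm placed on dried maize leaf sections previously sprayed with emulsified compound (acetone/DMF solvent, water with 1000 ppm emulsifier). Percent of caterpillars killed recorded on day 7, 0–100% scale.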

With `C[C@H](Nc1nc2cc(C(F)(F)F)c(Cl)cc2o1)c1ncnn1-c1ncccn1` [Example I-001, 6-chloro-N-{(1S)-1-[1-(pyrimidin-2-yl)-1H-1,2,4-triazol-5-yl]ethyl}-5-(trifluoromethyl)-1,3-benzoxazol-2-amine] the mortality at 4 mg/m2 ([1]; surface concentration 4 mg/m^2, glazed tile) was 85 to 100%, the mortality at 20 mg/m2 ([1]; surface concentration 20 mg/m^2, glazed tile) was 90 to 100% and the pest or weed control at 160 µg/disc, 500 g/ha (Diabrotica balteata) was 100%. The mortality at 100 g/ha (Spodoptera frugiperda) was 100% and the mortality at 500 g/ha (Spodoptera frugiperda) was 100%.
